In experiment [1] the test system is IgE. Kind of experiment: Secondary antigen-specific IgE response to TNP-KLH on alum. It is filed as in vivo, mouse (Balb/c female). The note with it: 20 μg IP 3x daily days 24 and 25. On the procedure:
(§1) ELISA (enzyme linked immunosorbant assay) measurements of IgE are as follows. About 5 μg of B1E3 antibody in 100 μl borate buffered saline (pH8.5) is added to wells of a NuncImmulon II 96 well plate (DiRuscio & Assoc., St. Louis, Mo.) at 37° C. for 90 minutes. The non-bound antibody is removed by flicking the plate. Unreacted sites on the plastic plate are blocked by adding about 200 μl of a 2% solution of newborn bovine serum (NBS) in PBS at 37° C. for 60 minutes. The standard IgE (or an unknown murine serum sample) is diluted to between about 4 ng/ml-256 ng/ml in Hanks-HS (20 mM Hepes, 2% NBS in Hanks Balanced Salt Solution, Gibco, Grand Island, N.Y.) or to 1/200 to 1/1000 in Hanks-HS respectively. 100 μl of standard (or unknown dilutions) are added in triplicate to the wells of the plate and allowed to absorb to B1E3 antibody at about 37° C. for 2-4 hours. The solution is removed by flicking the plate and each well is washed with about 0.5 ml 0.05% Tween 20-PBS 5 times. About 100 μl of biotinylated R1E4, called the primary antibody, diluted to 200 ng/ml is added to all wells and incubated at about 4° C. overnight. The solution is removed by flicking the plate and washed 5 times as described above. The developing reagent (Avidin and biotin-horse radish peroxidase) is incubated in 2% NBS in PBS at ambient temperature for 30 minutes, according to manufacturer's specifications (Vector Laboratories, Burlingame, Calif.). About 100 μl of developing reagent is added to each well and incubated at ambient temperature for 30 minutes. Colorimetric substrate for the developing reagent (ABTS peroxidase substrate system, KPL, Gaithersburg, Md.) is prepared by mixing equal volumes of solutions A and B and incubating at ambient temperature for 60 minutes. The developing reagent solution is removed by flicking the plate and washed 5 times as described above. About 100 μl of the mixture of substrates is added to each well and incubated at ambient temperature for 60 minutes. The optical density of each well is determined on a BioTek ELISA reader (Biotek Instruments, Inc., Burlington, Vermont) and the absorbance data transferred electronically to a DEC VAX mainframe computer. A standard curve is fitted to the IgE standard optical densities using straight line, linear regression statistical fits. IgE in the unknown serum samples is determined by comparing the optical density of the unknown to the standard curve and multiplying that number by the dilution of serum used in the assay.
Stimulation of a secondary antigen-specific IgE response in mouse with haptenated antigen absorbed on alum is inhibited by (±) methyl 11α,16-dihydroxy-16-methyl-9-oxoprosta-5Z,13E-dien-1-oate. Three groups of 7 Balb/c female mice were treated as follows. […]

Experiment [2] has as its system IgE. Kind of experiment: Inhibition of de novo IgE synthesis after oral (intragastric) administration. It is filed as in vivo, mouse (Balb/c female). The note with it: for IgE ± SD: 20 μg intragastric TID days 3 and 4. How it is done: as §1
Three groups of 4 Balb/c female mice per group are injected with both 100 μg FF1-4D5 antibody and 100 μg H∂A1 antibody (Groups B, C, and D). Another group of 4 Balb/c female mice is injected with PBS alone, unstimulated control Group A. One of the stimulated group were not given any prostaglandin control Group B. On day 3 and 4, individual groups receive an intragastric feeding TID of 0.25 ml of 20 μg of (±) methyl 11α,16-dihydroxy-16-methyl-9-oxoprosta-5Z,13E-dien-1-oate (Group C) or 20 μg of prostaglandin E2 (Group D) dissolved in PBS.

Where [3] appears, read: day -1 baseline before treatment.

Here are results for one compound from patent US5157052A, “Method for inhibiting IgE production” (priority 1990, dated 1992).

As for `CCCCC(C)(O)C/C=C/[C@H]1[C@H](O)CC(=O)[C@@H]1C/C=C\CCCC(=O)OC` (mixture of isomers) [(±) methyl 11α,16-dihydroxy-16-methyl-9-oxoprosta-5Z,13E-dien-1-oate], in the experiment on IgE [1], the “secondary IgE response” value is listed as “inhibited from the synthesis of a secondary IgE response”. Moreover, the “IgE ± SD” value was 14,448 ± 4926 ng/ml with IgE [1] (day 28, p < .02 (boosted control 28,568)); 7564 ± 1528 ng/mL in the experiment on IgE [1] (day 30, p < .016 (boosted control 22,564)); 1487 ± 138 ng/mL with IgE [1] (setting [3]); 1490 ± 525 ng/mL in the experiment with IgE [2] (day 8 (stimulated control 5792, unstimulated 1015)); 1131 ± 198 ng/mL with IgE [2] (day 10 (stimulated control 1498)); 1115 ± 201 ng/mL with IgE [2] (setting [3]). In addition, the “inhibition of de novo IgE synthesis after oral administration” value in the experiment with IgE [2] (20 μg intragastric TID) is reported as “significantly inhibits de novo IgE synthesis after oral administration”.
